Assay results from US12139458B2, “(2,5-dioxopyrrolidin-1-yl)(phenyl)-acetamide derivatives and their use in the treatment of neurological diseases” (UNIWERSYTET JAGIELLONSKI, priority 2019, dated 2024).
Counter-ions that a name gives are not always drawn.

Legend:
[1] = test system: male Swiss albino mice (CD-1); assay: Psychomotor seizure test 6 Hz (32 mA); assay type: in vivo; details: screening, 100 mg/kg i.p., 0.5 h, mice; for responders at 100 mg/kg: Mus musculus, ip, read-out: 6 Hz (32 mA): number of mice protected/number of mice tested (converted)
Experimental: (§1) The male Swiss albino mice (CD-1) weighing 18-26 g were used. All procedures were carried out in accordance with applicable Polish and international guidelines on the ethics of animal testing, after obtaining appropriate institutional approval. The substances were administered intraperitoneally (i.p.), in 1% aqueous solution of Tween, as single injections with a volume of 10 ml/kg, 30 minutes before the given test. Screening was performed on groups consisted of 4 mice. The average effective dose (ED50) in given test and toxic dose in the rotarod test (TD50) was estimated based on the results obtained in 3-4 groups of animals consisting of 6 mice. All tests were carried out based on the procedures described in the specialist literature.
In the 6 Hz test, seizures were induced by an electric stimulus of 32 mA and/or 44 mA and a frequency of 6 pulses per second. An electrical pulse was generated using an electric shock generator (ECT Unit 57800; Ugo Basile, Gemonio, Italy) and delivered to the animal using ocular electrodes. Before starting the test, the eye surface was gently moistened with a solution of local anesthetic (1% lidocaine solution). The study was conducted 30 minutes after intraperitoneal administration of the compounds at various doses. An electrical pulse was delivered continuously for a period of 3 seconds, followed by observation of the animal for a period of 10 seconds. During this time, immobility or stun associated with rearing, forelimb clonus, twitching of the vibrissae and Straub's tail were observed. These symptoms persist throughout the observation period, indicating the occurrence of psychomotor seizures in mice. Mice resuming normal behavior within 10 s after stimulation were considered as protected (Barton, M. E.; Klein, B. D.; Wolf, H. H.; White, H. S. Epilepsy Res. 2001, 47, 217-227; Wojda, E.; Wlaź, A.; Patsalos, P. N.; Łuszczki, J. J. Epilepsy Res. 2009, 86, 163-174).
(§2) To perform a statistical evaluation of the results, one-way ANOVA variance analysis and Dunnett's post hoc test (multiple comparison test) were used. The value at the significance level p<0.05 was considered statistically significant.

[2] = test system: male Swiss albino mice (CD-1); assay: Subcutaneous pentylenetetrazole seizure test (scPTZ); assay type: in vivo; details: screening, 100 mg/kg i.p., 0.5 h, mice; for responders at 100 mg/kg: Mus musculus, ip, read-out: scPTZ: number of mice protected/number of mice tested (converted)
Experimental: as §1
In the scPTZ test, seizures were induced by subcutaneous administration of pentylenetetrazole (PTZ) at a dose of 100 mg/kg. This caused clonic seizures with accompanying loss of the righting reflex. Test compounds were administered 30 minutes before the experiment. After PTZ administration, the animals were placed individually in transparent containers and observed for a period of 30 minutes for the occurrence of clonic seizures. During this time, the latency of the first onset of clonic seizures, defined as clonus of the whole body lasting at least 3 seconds with loss of the righting reflex and the number of seizure episodes during the test were noted and compared with control group. The absence of clonic convulsions within the observed time period was interpreted as the compound's ability to protect against PTZ-induced seizures (Ferreri, G.; Chimirri, A.; Russo, E.; Gitto, R.; Gareri, P.; De Sarro, A.; De Sarro, G. Pharmacol. Biochem. Behav. 2004, 77, 85-94; Łączkowski, K.; Sałat, K.; Misiura, K.; Podkowa, A.; Malikowska, N. J. Enzyme Inhib. Med. Chem. 2016, 31, 1576-82).
as §2

[3] = test system: male Swiss albino mice (CD-1); assay: Maximal electroshock seizure test (MES); assay type: in vivo; details: screening, 100 mg/kg i.p., 0.5 h, mice; for responders at 100 mg/kg: Mus musculus, ip, read-out: MES: number of mice protected/number of mice tested (converted)
Experimental: as §1
In the MES test, the seizures were induced by an electrical stimulus lasting of 0.2 s duration, 500 V voltage and 25 mA intensity. The electrical stimuli was generated using an electric shock generator (Rodent shocker, Type 221, Hugo Sachs Elektronik, Germany) and delivered to the animal using electrodes placed on the auricles. The study was conducted 30 minutes after intraperitoneal administration of the compounds at various doses. During the experiment, the number of animals that experienced a seizure episode in the form of tonic extension of the hind limbs was counted (Kamiński, K.; Rapacz, A.; Łuszczki, J. J.; Latacz, G.; Obniska, J.; Kieć-Kononowicz, K.; Filipek, B. Bioorg. Med. Chem. 2015, 23, 2548-2561; Castel-Branco, M. M.; Alves, G. L.; Figueiredo, I. V.; Falcão, A. C.; Caramona, M. M. Methods Find. Exp. Clin. Pharmacol. 2009, 31, 101-106).
as §2

Row | Compound | melting point [°C] | 6 Hz (32 mA): number of mice protected/number of mice tested [1] | scPTZ: number of mice protected/number of mice tested [2] | MES: number of mice protected/number of mice tested [3] | responders at 100 mg/kg [1] [%] | responders at 100 mg/kg [3] [%] | responders at 100 mg/kg [2] [%]
1 | O=C([C@@H](c1ccccc1)N1C(=O)CCC1=O)N1CCN(c2cccc(SC(F)(F)F)c2)CC1 [(R)-12] |  | 4/4 | ¼ | 4/4 |  |  | 
2 | CNC1CC(=O)N(C(C(=O)N2CCN(c3cccc(C(F)(F)F)c3)CC2)c2ccccc2)C1=O.Cl (stereo not shown) [Compound 48, 3-(Methylamino)-1-(2-oxo-1-phenyl-2-(4-(3-(trifluoromethyl)phenyl)piperazin-1-yl)ethyl)pyrrolidine-2,5-dione hydrochloride] | 161.2 to 163.4 |  | ¾ |  | 100 | 100 | 
3 | O=C(C(Cc1ccccc1)N1C(=O)CCC1=O)N1CCN(c2cccc(Cl)c2)CC1 (stereo not shown) [Compound 22, 1-(1-(4-(3-Chlorophenyl)piperazin-1-yl)-1-oxo-3-phenylpropan-2-yl)pyrrolidine-2,5-dione] | 114.3 to 116.2 |  |  |  |  |  | 
4 | O=C(C(Cc1ccccc1)N1C(=O)CCC1=O)N1CCN(c2cccc(-c3ccccc3)c2)CC1 (stereo not shown) [Compound 24, 1-(1-(4-([1,1′-Biphenyl]-3-yl)piperazin-1-yl)-1-oxo-3-phenylpropan-2-yl)pyrrolidine-2,5-dione] | 119.1 to 120 |  |  |  |  |  | 
5 | O=C(C(Cc1ccccc1)N1C(=O)CCC1=O)N1CCN(c2cccc(C(F)(F)F)c2)CC1 (stereo not shown) (as salt: salt) [Example 23, 1-(1-Oxo-3-phenyl-1-(4-(3-(trifluoromethyl)phenyl)piperazin-1-yl)propan-2-yl)pyrrolidine-2,5-dione] | 126.1 to 127.2 |  |  |  |  |  | 
6 | O=C(C(c1ccccc1)N1C(=O)CCC1=O)N1CCN(c2ccc3oncc3c2)CC1 (stereo not shown) [Compound 17, 1-(2-(4-(1,2-Benzoxazol-5-il)piperazin-1-yl)-2-oxo-1-phenylethyl)pyrrolidine-2,5-dione] |  | ¾ | ¾ | ¾ |  |  | 
7 | O=C(C(c1ccccc1)N1C(=O)CCC1=O)N1CCC(c2cccc(OC(F)(F)F)c2)CC1 (racemic) [Compound 20, 1-(2-Oxo-1-phenyl-2-(4-(3-(trifluoromethoxy)phenyl)piperidin-1-yl)ethyl)pyrrolidine-2,5-dione] | 112.1 to 113.2 | ¾ |  |  |  | 100 | 50
8 | O=C(C(Cc1ccccc1)N1C(=O)CCC1=O)N1CCN(c2ccccc2)CC1 (stereo not shown) [Compound 21, 1-(1-Oxo-3-phenyl-1-(4-phenylpiperazin-1-yl)prop-2-yl)pyrrolidine-2,5-dione] | 121.7 to 123.2 |  |  |  |  |  | 
9 | O=C(C(c1ccccc1)N1C(=O)CCC1=O)N1CCN(c2ccc(C(F)(F)F)cc2)CC1 (racemic) [Compound 7, 1-(2-Oxo-1-phenyl-2-(4-(4-(trifluoromethyl)phenyl)piperazin-1-yl)ethyl)pyrrolidine-2,5-dione] | 173.2 to 174.3 | ¾ | ¾ | ¾ |  |  | 
10 | O=C(C(c1ccccc1)N1C(=O)CCC1=O)N1CCN(c2ccc3sccc3c2)CC1 (racemic) [Compound 16, 1-(2-(4-(Benzo[b]thiophen-5-yl)piperazin-1-yl)-2-oxo-1-phenylethyl)pyrrolidine-2,5-dione] | 164.1 to 165.3 | ¾ | ¾ | ¾ |  |  | 

Continued, in another order:

Row | melting point [°C] | Compound | 6 Hz (32 mA): number of mice protected/number of mice tested [1] | scPTZ: number of mice protected/number of mice tested [2] | MES: number of mice protected/number of mice tested [3] | responders at 100 mg/kg [1] [%] | responders at 100 mg/kg [3] [%] | responders at 100 mg/kg [2] [%]
11 | 157.8 to 159.2 | CN(C)C1CC(=O)N(C(C(=O)N2CCN(c3cccc(C(F)(F)F)c3)CC2)c2ccccc2)C1=O.Cl (stereo not shown) [Compound 49, 3-(Dimethylamino)-1-(2-oxo-1-phenyl-2-(4-(3-(trifluoromethyl)phenyl)-piperazin-1-yl)ethyl)pyrrolidine-2,5-dione hydrochloride] |  | ¾ |  | 100 | 100 | 
12 | 174.3 to 175.5 | O=C([C@@H](c1ccccc1)N1C(=O)CCC1=O)N1CCN(c2cc(Cl)cc(Cl)c2)CC1 [(R)-4, (R)-1-(2-(4-(3,5-dichlorophenyl)piperazin-1-yl)-2-oxo-1-phenylethyl)pyrrolidine-2,5-dione] |  |  |  | 100 | 100 | 50
13 | 228.1 to 229.4 | O=C(C(c1ccccc1)N1C(=O)CCC1=O)N1CCN(c2cc(C(F)(F)F)cc(C(F)(F)F)c2)CC1 (racemic) [Compound 8, 1-(2-(4-(3,5-Bis(trifluoromethyl)phenyl)piperazin-1-yl)-2-oxo-1-phenylethyl)pyrrolidine-2,5-dione] | ¾ |  |  |  | 100 | 100
14 | 104.4 to 105.5 | O=C(C(Cc1ccccc1)N1C(=O)CCC1=O)N1CCN(c2cccc(OC(F)(F)F)c2)CC1 (stereo not shown) [Compound 25, 1-(1-Oxo-3-phenyl-1-(4-(3-(trifluoromethoxy)phenyl)piperazin-1-yl)propan-2-yl)pyrrolidine-2,5-dione] |  |  |  |  |  | 
15 | 197.1 to 198.5 | O=C(C(c1ccccc1)N1C(=O)CCC1=O)N1CCN(c2ccc3ccccc3c2)CC1 (racemic) [Compound 15, 1-(2-(4-(Naphth-2-yl)piperazin-1-yl)-2-oxo-1-phenylethyl)pyrrolidine-2,5-dione] | ¾ | ¾ |  |  | 50 | 
16 | 142.2 to 143.1 | CCN(CC)C1CC(=O)N(C(C(=O)N2CCN(c3cccc(C(F)(F)F)c3)CC2)c2ccccc2)C1=O.Cl (stereo not shown) [Compound 50, 3-(Diethylamino)-1-(2-oxo-1-phenyl-2-(4-(3-(trifluoromethyl)phenyl)piperazin-1-yl)ethyl)pyrrolidine-2,5-dione hydrochloride] |  |  |  | 100 | 100 | 50
17 | 111.8 to 113.4 | O=C(C(c1ccccc1)N1C(=O)CCC1=O)N1CCC(c2cccc(Cl)c2)CC1 (racemic) [Compound 18, 1-(2-(4-(3-Chlorophenyl)piperidin-1-yl)-2-oxo-1-phenylethyl)pyrrolidine-2,5-dione] | ¾ | ¾ | ¾ |  |  | 
18 | 102.3 to 103.5 | O=C(C(c1ccccc1)N1C(=O)CCC1=O)N1CCN(c2ccc(OC(F)(F)F)cc2)CC1 (racemic) [Compound 11, 1-(2-Oxo-1-phenyl-2-(4-(4-(trifluoromethoxy)phenyl)piperazin-1-yl)ethyl)pyrrolidine-2,5-dione] | ¾ |  | ¾ |  |  | 50
